Where “and” joins values, the source holds several entries; their conditions need not be identical. Equal values may be shown once.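 96-well plates; 48 h exposure; 5 concentrations. Endpoints by linear interpolation between flanking doses. Not reached: highest tested concentration assigned. Here, GI50 denotes the concentration required for 50% inhibition of growth.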 Calls of active or inactive are those of the source. No stated cut-off is given here; in the data, active = GI50 up to about 1.1 µM and inactive = higher.
Assays:
Experiment in all cases: growth of human tumour cells (NCI), 48 h
786-0 = test system: 786-0
A498 = test system: A498
A549 = test system: A549
ACHN = test system: ACHN
BT-549 = test system: BT-549
CAKI-1 = test system: CAKI-1
CCRF-CEM = test system: CCRF-CEM
COLO 205 = test system: COLO 205
DU-145 = test system: DU-145
EKVX = test system: EKVX
HCC 2998 = test system: HCC 2998
HCT-116 = test system: HCT-116
HCT-15 = test system: HCT-15
HL-60 = test system: HL-60
HOP-62 = test system: HOP-62
HOP-92 = test system: HOP-92
HT-29 = test system: HT-29
Hs-578T = test system: Hs-578T
IGROV-1 = test system: IGROV-1
K562 = test system: K562
KM12 = test system: KM12
LOX IMVI = test system: LOX IMVI
M14 = test system: M14
MCF7 = test system: MCF7
MDA-MB-231 = test system: MDA-MB-231
MDA-MB-435 = test system: MDA-MB-435
MDA-N = test system: MDA-N
MOLT-4 = test system: MOLT-4
Malme-3M = test system: Malme-3M
NCI-H226 = test system: NCI-H226
NCI-H23 = test system: NCI-H23
NCI-H460 = test system: NCI-H460
NCI-H522 = test system: NCI-H522
NCI/ADR-RES = test system: NCI/ADR-RES
OVCAR-3 = test system: OVCAR-3
OVCAR-4 = test system: OVCAR-4
OVCAR-5 = test system: OVCAR-5
OVCAR-8 = test system: OVCAR-8
PC-3 = test system: PC-3
RPMI-8226 = test system: RPMI-8226
RXF 393 = test system: RXF 393
SF-268 = test system: SF-268
SF-295 = test system: SF-295
SF-539 = test system: SF-539
SK-MEL-28 = test system: SK-MEL-28
SK-MEL-2 = test system: SK-MEL-2
SK-MEL-5 = test system: SK-MEL-5
SK-OV-3 = test system: SK-OV-3
SN12C = test system: SN12C
SNB-19 = test system: SNB-19
SNB-75 = test system: SNB-75
SR = test system: SR
SW-620 = test system: SW-620
T47D = test system: T47D
TK-10 = test system: TK-10
U-251 = test system: U-251
UACC-257 = test system: UACC-257
UACC-62 = test system: UACC-62
UO-31 = test system: UO-31
DMS-114 = test system: DMS-114
KM-20L2 = test system: KM-20L2
LXFL 529 = test system: LXFL 529
M19-MEL = test system: M19-MEL
SNB-78 = test system: SNB-78

In the case of `Cc1nc(-c2ccccc2)cn2c1nc1ccccc12`, the GI50 (786-0) is reported as 21 µM (inactive), the GI50 (A498) is reported as 15.3 µM (inactive) and the GI50 (A549) is reported as 19.4 µM (inactive). For the same compound, the GI50 (ACHN) was 21.7 µM (inactive), the GI50 (BT-549) was 17.4 µM (inactive) and the GI50 (CAKI-1) was 21.1 µM (inactive). The GI50 (CCRF-CEM) was > 58.7 µM (inactive), the GI50 (COLO 205) was 37.9 µM (inactive) and the GI50 (DU-145) was 31.8 µM (inactive). The GI50 (EKVX) was 25.2 µM (inactive), the GI50 (HCC 2998) was 51.4 µM (inactive) and the GI50 (HCT-116) was 25.9 µM (inactive). The GI50 (HCT-15) was 16.4 µM, the GI50 (HL-60) was 67 µM (inactive) and the GI50 (HOP-62) was 20.9 µM (inactive). The GI50 (HOP-92) was 21 µM (inactive), the GI50 (HT-29) was 24.3 µM (inactive) and the GI50 (Hs-578T) was 35.4 µM (inactive). The GI50 (IGROV-1) was 19.9 µM (inactive), the GI50 (K562) was > 61.7 µM (inactive) and the GI50 (KM12) was 20.8 µM (inactive). For the same compound, the GI50 (LOX IMVI) was 20.8 µM (inactive), the GI50 (M14) was 30.5 µM (inactive) and the GI50 (MCF7) was 2.8 µM (inactive). The GI50 (MDA-MB-231) was 29.9 µM (inactive), the GI50 (MDA-MB-435) was 19.2 µM (inactive) and the GI50 (MDA-N) was 21.8 µM (inactive). For the same compound, the GI50 (MOLT-4) was 44 µM (inactive), the GI50 (Malme-3M) was 23.9 µM (inactive) and the GI50 (NCI-H226) was 17.5 µM (inactive). The GI50 (NCI-H23) was 25.9 µM (inactive), the GI50 (NCI-H460) was 17.7 µM (inactive) and the GI50 (NCI-H522) was 24.9 µM (inactive). The GI50 (NCI/ADR-RES) was 20.9 µM (inactive), the GI50 (OVCAR-3) was 26.7 µM (inactive) and the GI50 (OVCAR-4) was 20.9 µM (inactive). For the same compound, the GI50 (OVCAR-5) was > 31.6 µM (inactive), the GI50 (OVCAR-8) was 18.8 µM (inactive) and the GI50 (PC-3) was 24.7 µM (inactive). The GI50 (RPMI-8226) was 41.1 µM (inactive), the GI50 (RXF 393) was 19.6 µM (inactive) and the GI50 (SF-268) was 28.5 µM (inactive). For the same compound, the GI50 (SF-295) was 23.9 µM (inactive), the GI50 (SF-539) was 23.1 µM (inactive) and the GI50 (SK-MEL-28) was 30.5 µM (inactive). For the same compound, the GI50 (SK-MEL-2) was 20.2 µM (inactive), the GI50 (SK-MEL-5) was 13.9 µM (inactive) and the GI50 (SK-OV-3) was 6.32 µM (inactive). For the same compound, the GI50 (SN12C) was 29.7 µM (inactive), the GI50 (SNB-19) was 29.5 µM (inactive) and the GI50 (SNB-75) was 17.2 µM (inactive). The GI50 (SR) was 27.2 µM (inactive), the GI50 (SW-620) was 27.7 µM (inactive) and the GI50 (T47D) was 2.05 µM (inactive). For the same compound, the GI50 (TK-10) was 29.3 µM (inactive), the GI50 (U-251) was 18.6 µM (inactive) and the GI50 (UACC-257) was 29 µM (inactive). For the same compound, the GI50 (UACC-62) was 14.7 µM (inactive) and the GI50 (UO-31) was 13.6 µM (inactive).
`CCCSc1nc(-c2ccc(OC)cc2)c(C#N)c(=O)n1C1OC(COC(C)=O)C(OC(C)=O)C(OC(C)=O)C1OC(C)=O` (centres undefined) was tested, and the GI50 (ACHN) was > 100 µM (inactive), the GI50 (CCRF-CEM) was > 100 µM (inactive) and the GI50 (COLO 205) was > 100 µM (inactive). The GI50 (DMS-114) was > 100 µM (inactive), the GI50 (HL-60) was > 100 µM (inactive) and the GI50 (HT-29) was > 100 µM (inactive) and 65.9 µM (inactive). The GI50 (K562) was > 100 µM (inactive), the GI50 (KM-20L2) was > 100 µM (inactive) and 54.6 µM (inactive) and the GI50 (KM12) was > 100 µM (inactive). For the same compound, the GI50 (LXFL 529) was > 100 µM (inactive), the GI50 (M19-MEL) was > 100 µM (inactive) and the GI50 (MOLT-4) was > 100 µM (inactive). The GI50 (NCI-H23) was > 100 µM (inactive), the GI50 (NCI-H460) was > 100 µM (inactive) and the GI50 (NCI-H522) was > 100 µM (inactive). For the same compound, the GI50 (OVCAR-4) was > 100 µM (inactive), the GI50 (RPMI-8226) was > 100 µM (inactive) and the GI50 (SF-268) was > 100 µM (inactive). The GI50 (SF-539) was > 100 µM (inactive), the GI50 (SK-MEL-28) was > 100 µM (inactive) and the GI50 (SK-MEL-2) was > 100 µM (inactive). For the same compound, the GI50 (SK-OV-3) was > 100 µM (inactive), the GI50 (SNB-75) was 42.3 µM (inactive) and the GI50 (SNB-78) was 99.3 µM (inactive). For the same compound, the GI50 (SR) was > 100 µM (inactive) and the GI50 (UACC-62) was > 100 µM (inactive).
`COc1ccc(C2SCC(=O)N2NC(=O)C(C)Oc2ccccc2C)cc1` (centres undefined) was tested, and the GI50 (786-0) was > 100 µM (inactive), the GI50 (A498) was 46 µM (inactive) and the GI50 (A549) was 61.4 µM (inactive). For the same compound, the GI50 (ACHN) was 68.5 µM (inactive), the GI50 (BT-549) was > 100 µM (inactive) and the GI50 (CAKI-1) was > 100 µM (inactive). For the same compound, the GI50 (CCRF-CEM) was 65.2 µM (inactive), the GI50 (COLO 205) was > 100 µM (inactive) and the GI50 (DU-145) was > 100 µM (inactive). For the same compound, the GI50 (EKVX) was > 100 µM (inactive), the GI50 (HCC 2998) was > 100 µM (inactive) and the GI50 (HCT-116) was 57.5 µM (inactive). The GI50 (HCT-15) was 54.7 µM, the GI50 (HL-60) was 28.7 µM (inactive) and the GI50 (HOP-62) was > 100 µM (inactive). For the same compound, the GI50 (HOP-92) was 29.2 µM (inactive), the GI50 (HT-29) was 95.9 µM (inactive) and the GI50 (Hs-578T) was > 100 µM (inactive). The GI50 (IGROV-1) was > 100 µM (inactive), the GI50 (K562) was 41.4 µM (inactive) and the GI50 (KM12) was > 100 µM (inactive). For the same compound, the GI50 (LOX IMVI) was 60.1 µM (inactive), the GI50 (M14) was > 100 µM (inactive) and the GI50 (MCF7) was 54.1 µM (inactive). For the same compound, the GI50 (MDA-MB-231) was 47.5 µM (inactive), the GI50 (MDA-MB-435) was 82.8 µM (inactive) and the GI50 (MDA-N) was 86.7 µM (inactive). For the same compound, the GI50 (MOLT-4) was 31 µM (inactive), the GI50 (Malme-3M) was > 100 µM (inactive) and the GI50 (NCI-H226) was > 100 µM (inactive). The GI50 (NCI-H23) was 55.6 µM (inactive), the GI50 (NCI-H460) was > 100 µM (inactive) and the GI50 (NCI-H522) was 56.6 µM (inactive). The GI50 (NCI/ADR-RES) was 65.2 µM (inactive), the GI50 (OVCAR-3) was > 100 µM (inactive) and the GI50 (OVCAR-4) was > 100 µM (inactive). The GI50 (OVCAR-5) was > 100 µM (inactive), the GI50 (OVCAR-8) was > 100 µM (inactive) and the GI50 (PC-3) was > 100 µM (inactive). The GI50 (RPMI-8226) was 41.5 µM (inactive), the GI50 (RXF 393) was > 100 µM (inactive) and the GI50 (SF-268) was > 100 µM (inactive). The GI50 (SF-295) was 60.8 µM (inactive), the GI50 (SF-539) was > 100 µM (inactive) and the GI50 (SK-MEL-28) was > 100 µM (inactive). The GI50 (SK-MEL-2) was 92.7 µM (inactive), the GI50 (SK-MEL-5) was 53 µM (inactive) and the GI50 (SK-OV-3) was > 100 µM (inactive). For the same compound, the GI50 (SN12C) was 87.7 µM (inactive), the GI50 (SNB-19) was > 100 µM (inactive) and the GI50 (SNB-75) was > 100 µM (inactive). The GI50 (SR) was 28.2 µM (inactive), the GI50 (SW-620) was > 100 µM (inactive) and the GI50 (T47D) was 46.3 µM (inactive). For the same compound, the GI50 (TK-10) was > 100 µM (inactive), the GI50 (U-251) was 85.7 µM (inactive) and the GI50 (UACC-257) was > 100 µM (inactive). The GI50 (UACC-62) was 80.2 µM (inactive) and the GI50 (UO-31) was 72.1 µM (inactive).

Reference: ChEMBL document CHEMBL1201862, “PubChem BioAssay data set” (2004)
